Measured values published in US11766440B1, “Methods for the prevention and treatment of hearing loss” (Ting Therapeutics LLC, priority 2020, dated 2023).
Where a name gives a salt, the structure may show the parent alone. Read-outs that look alike come from different tables or passages of the source.

Key:
JAK1 = JAK1 (Homo sapiens, UniProt P23458); conditions: cited from earlier work
JAK2 = JAK2 (Homo sapiens, UniProt O60674); conditions: cited from earlier work
[1] = test system: panel of 38 non-JAK kinases; conditions: cited from earlier work
EGFR kinase = EGFR kinase (Homo sapiens, UniProt P00533); conditions: measured value; read-out: IC50 in EGFR kinase inhibition assays; cited from earlier work
JAK3 = target: T1, JAK3 (Homo sapiens, UniProt P52333); conditions: cited from earlier work
T1 sequence (P52333 1-1124): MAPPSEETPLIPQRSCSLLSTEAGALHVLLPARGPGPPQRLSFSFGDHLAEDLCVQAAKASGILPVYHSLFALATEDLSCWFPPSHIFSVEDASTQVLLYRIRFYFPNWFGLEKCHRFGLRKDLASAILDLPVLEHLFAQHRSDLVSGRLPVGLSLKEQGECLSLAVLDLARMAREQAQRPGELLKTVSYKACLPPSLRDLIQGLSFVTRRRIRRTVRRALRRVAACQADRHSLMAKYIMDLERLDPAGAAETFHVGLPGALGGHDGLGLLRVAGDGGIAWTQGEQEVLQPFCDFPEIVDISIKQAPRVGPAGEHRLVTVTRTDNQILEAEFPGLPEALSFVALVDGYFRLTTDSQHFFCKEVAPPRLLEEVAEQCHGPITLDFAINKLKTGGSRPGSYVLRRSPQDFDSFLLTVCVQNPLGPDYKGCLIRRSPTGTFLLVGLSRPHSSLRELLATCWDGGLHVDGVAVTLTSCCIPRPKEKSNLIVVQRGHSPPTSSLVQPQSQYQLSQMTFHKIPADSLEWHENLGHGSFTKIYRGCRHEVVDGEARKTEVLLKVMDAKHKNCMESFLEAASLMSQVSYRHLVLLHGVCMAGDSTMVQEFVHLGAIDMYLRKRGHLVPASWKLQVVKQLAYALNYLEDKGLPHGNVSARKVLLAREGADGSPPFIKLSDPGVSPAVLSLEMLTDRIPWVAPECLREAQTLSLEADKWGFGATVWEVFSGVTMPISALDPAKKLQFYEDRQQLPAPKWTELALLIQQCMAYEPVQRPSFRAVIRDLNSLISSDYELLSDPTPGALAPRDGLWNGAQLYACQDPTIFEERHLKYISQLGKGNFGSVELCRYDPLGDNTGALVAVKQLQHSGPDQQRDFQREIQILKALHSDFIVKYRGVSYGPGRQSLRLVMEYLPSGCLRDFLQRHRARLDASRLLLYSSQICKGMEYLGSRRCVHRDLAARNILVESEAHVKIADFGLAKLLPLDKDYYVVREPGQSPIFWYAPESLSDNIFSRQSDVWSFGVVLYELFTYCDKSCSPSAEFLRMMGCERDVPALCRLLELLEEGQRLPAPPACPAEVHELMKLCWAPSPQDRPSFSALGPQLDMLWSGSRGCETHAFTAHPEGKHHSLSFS

TYK2 = TYK2 (Homo sapiens, UniProt P29597); conditions: cited from earlier work
[2] = 14-day oral toxicity and auditory brainstem response (ABR) thresholds in mice; assay type: in vivo, C57BL/6 mice
Description: Auditory brainstem response (ABR) thresholds were recorded for 3 frequencies (8 kHz, 16 kHz, and 32 kHz) before and after a 14-day MMB treatment protocol. […] Statistical analysis was done with repeated measures ANOVA between groups.
4-week-old C57BL/6 mice obtained from The Jackson Laboratory were used, with a mix of males and females across experiments. Mice were administered a 14-day Momelotinib treatment protocol. Auditory Brainstem Response thresholds were recorded at 8 kHz, 16 kHz, and 32 kHz for a baseline sample of mice and the mice administered Momelotinib.

[3] = test system: outer hair cells of cochlear explants of P3 FVB mice; assay: Outer hair cell survival in whole-mount cochlear explants treated with aminoglycosides; assay type: cell-based, mouse
Description: A) Representative confocal images of the middle turn of whole-mount cochlear explants from P3 FVB mice treated with medium alone, […] gentamicin, 0.2 μM Momelotinib and […] gentamicin for 24 h. […] HCs are labeled with phalloidin. […] (Mann-Whitney U Test, *P<0.05, **P<0.01) shown in a micromolar concentration.
Now referring to FIG. 2A-B, Momelotinib protects from aminoglycoside toxicity in cochlear explants of P3 FVB mice. FVB mice were bred in the Creighton University animal facility. Procedures were approved by the IACUC committee of the Creighton University. 2A) Inner ears were collected from the post-natal day 3 (P3) FVB mice and transferred onto a filter (Millicell, PICM03050; Millipore) soaked in culturing medium. The filter was placed in 6-well culture plates with 1.2 mL medium outside the filter. The culturing medium is DMEM (10565-018; gibco) with 1% FBS (16000-044; gibco), 500 μL ampicillin (A5354; Sigma), 100 μL N-2 supplement (17502-048, gibco) and 100 μL B-27 supplement (17504-044, gibco). After culturing for 24 h at 37° C. in 5% CO2, 1 mL culturing medium with MMB at 0.2 μM, […] MMB alone or without MMB and added both inside and outside the filter to preincubate for another 1 h before adding gentamicin solution. A 50 μg/mL gentamicin (G1397, Sigma) was chosen to induce around 35% hair cell death after incubation for 24 h at 37° C. For compound CYT-387 or MMB (A10263, AdooQ). The procedures were performed under sterile condition in the culture hood. Cochleae were then fixed with 4% PFA for 30 min and stained with Alexa Fluor 555 phalloidin in to determine the survival rate of the hair cells. All the cochleae images were taken with Zeiss 700 confocal microscopy. […] The survival OHCs were then normalized to 100 μm length to further compare between different experimental conditions. 2B) OHC survival (OHC number per 100 μm length of cochlear middle turn) after treatment with Momelotinib at 0.0016, 0.008, 0.04, 0.2, 1.0, 5.0, 10.0 and 20.0 μM for 1 hour and co-incubated with 100 μM GM for 1 hour, or co-incubated with 600 μM kanamycin (K0254, Sigma) for 1 hour. […]

[4] = test system: zebrafish lateral line neuromast hair cells; assay: Zebrafish lateral line neuromast hair cell counts after aminoglycoside; assay type: in vivo, Danio rerio; conditions: 5dpf larvae, 1 hour pre-incubation 0.002-13.3 μM
Description: . Each treatment was pretreated with MMB at the prescribed doses prior to co-treatment with the aminoglycoside. Control animal were treated with DMSO (−) or KM or GM alone (+) Animals were then fixed and immunostained for GFP and otoferlin. Quantification was done by assessing three neuromasts in the same anatomic location of each animal (n=5). The data is plotted as mean+SD. Statistical testing was done with One-way ANOVA and Dunnett post-hoc test (*P<0.05, **P<0.01,***P<0.001).
FIG. 4A-B show Fedratinib (FED) protected zebrafish mechanosensory hair cells against kanamycin (KM) in vivo. 5dpf Tg(Brn3c:mGFP) larvae were used for the experiments. Each treatment was pretreated FED at the prescribed doses prior to co-treatment with the aminoglycoside. […] Control animal were treated with DMSO (−) or KM alone (+) Animals were then fixed and immunostained for GFP and otoferlin. Quantification was done by assessing three neuromasts in the same anatomic location of each animal (n=5). […]
These two markers were used to detect and count neuromast HCs to reduce the chances of missing some of the HCs after the treatment since we previously noticed that incubation with the compounds can affect GFP expression more difficult to detect under a fluorescence microscope (26). […] Compounds were then evaluated on efficiency and potency, with the top-rated compounds showing high protection at lower concentrations. […]

JAK2, sequence (O60674 whole entry, species assumed): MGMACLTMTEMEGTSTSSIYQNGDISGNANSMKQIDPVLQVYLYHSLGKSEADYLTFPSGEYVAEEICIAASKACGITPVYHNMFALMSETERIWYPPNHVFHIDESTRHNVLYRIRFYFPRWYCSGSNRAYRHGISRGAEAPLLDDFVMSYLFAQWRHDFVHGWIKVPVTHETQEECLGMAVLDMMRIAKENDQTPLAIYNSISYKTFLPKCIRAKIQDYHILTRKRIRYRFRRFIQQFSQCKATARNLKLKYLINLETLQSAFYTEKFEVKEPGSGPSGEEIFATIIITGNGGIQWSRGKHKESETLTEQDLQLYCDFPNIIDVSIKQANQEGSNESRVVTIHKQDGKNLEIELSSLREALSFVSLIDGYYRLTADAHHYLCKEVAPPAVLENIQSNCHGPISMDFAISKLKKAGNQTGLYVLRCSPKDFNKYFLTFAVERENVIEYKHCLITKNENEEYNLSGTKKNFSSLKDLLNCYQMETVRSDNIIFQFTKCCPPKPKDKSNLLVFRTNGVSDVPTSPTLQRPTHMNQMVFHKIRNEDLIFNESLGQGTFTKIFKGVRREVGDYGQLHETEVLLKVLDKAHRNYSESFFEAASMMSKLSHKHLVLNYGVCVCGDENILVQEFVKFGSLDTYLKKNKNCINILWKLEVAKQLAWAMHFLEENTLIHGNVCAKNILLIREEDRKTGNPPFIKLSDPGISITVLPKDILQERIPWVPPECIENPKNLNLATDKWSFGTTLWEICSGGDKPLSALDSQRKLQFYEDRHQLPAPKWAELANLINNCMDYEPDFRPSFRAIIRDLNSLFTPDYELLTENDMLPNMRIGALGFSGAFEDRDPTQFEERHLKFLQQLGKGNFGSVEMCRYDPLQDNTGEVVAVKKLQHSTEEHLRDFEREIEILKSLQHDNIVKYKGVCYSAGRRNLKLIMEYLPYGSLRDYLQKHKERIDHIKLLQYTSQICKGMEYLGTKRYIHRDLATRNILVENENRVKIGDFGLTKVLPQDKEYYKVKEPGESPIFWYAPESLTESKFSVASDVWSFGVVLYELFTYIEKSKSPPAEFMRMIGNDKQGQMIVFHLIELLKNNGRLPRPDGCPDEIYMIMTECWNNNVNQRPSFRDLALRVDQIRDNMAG
JAK1, sequence (P23458 whole entry, species assumed): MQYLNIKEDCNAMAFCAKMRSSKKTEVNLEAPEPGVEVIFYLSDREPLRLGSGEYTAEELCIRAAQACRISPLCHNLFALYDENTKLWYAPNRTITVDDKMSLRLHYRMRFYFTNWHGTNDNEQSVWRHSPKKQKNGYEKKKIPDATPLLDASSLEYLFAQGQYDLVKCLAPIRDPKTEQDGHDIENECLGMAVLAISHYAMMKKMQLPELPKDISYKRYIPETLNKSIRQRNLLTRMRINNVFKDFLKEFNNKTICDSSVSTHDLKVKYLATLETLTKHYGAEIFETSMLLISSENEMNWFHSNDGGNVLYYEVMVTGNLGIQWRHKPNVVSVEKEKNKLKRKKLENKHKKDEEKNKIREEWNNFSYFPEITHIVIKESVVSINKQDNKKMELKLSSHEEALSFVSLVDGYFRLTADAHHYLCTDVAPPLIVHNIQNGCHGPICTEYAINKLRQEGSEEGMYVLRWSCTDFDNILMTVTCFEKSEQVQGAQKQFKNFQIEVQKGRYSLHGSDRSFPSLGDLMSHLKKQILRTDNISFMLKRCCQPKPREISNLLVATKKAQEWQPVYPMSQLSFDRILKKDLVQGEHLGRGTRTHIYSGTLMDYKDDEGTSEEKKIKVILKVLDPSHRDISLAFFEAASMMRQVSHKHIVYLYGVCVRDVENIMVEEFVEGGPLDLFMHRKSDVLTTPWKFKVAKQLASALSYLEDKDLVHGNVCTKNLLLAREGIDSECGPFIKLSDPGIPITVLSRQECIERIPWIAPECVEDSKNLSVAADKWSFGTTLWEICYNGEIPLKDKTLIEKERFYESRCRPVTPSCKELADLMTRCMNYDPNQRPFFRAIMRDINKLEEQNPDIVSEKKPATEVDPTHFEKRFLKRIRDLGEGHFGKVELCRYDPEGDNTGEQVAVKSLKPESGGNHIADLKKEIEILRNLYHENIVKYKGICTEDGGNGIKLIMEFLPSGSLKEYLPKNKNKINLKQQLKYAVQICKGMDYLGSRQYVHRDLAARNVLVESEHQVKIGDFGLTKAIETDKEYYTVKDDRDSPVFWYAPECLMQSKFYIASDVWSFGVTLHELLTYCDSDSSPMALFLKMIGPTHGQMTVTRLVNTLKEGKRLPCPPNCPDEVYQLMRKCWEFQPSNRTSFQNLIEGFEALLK
TYK2, sequence (P29597 whole entry): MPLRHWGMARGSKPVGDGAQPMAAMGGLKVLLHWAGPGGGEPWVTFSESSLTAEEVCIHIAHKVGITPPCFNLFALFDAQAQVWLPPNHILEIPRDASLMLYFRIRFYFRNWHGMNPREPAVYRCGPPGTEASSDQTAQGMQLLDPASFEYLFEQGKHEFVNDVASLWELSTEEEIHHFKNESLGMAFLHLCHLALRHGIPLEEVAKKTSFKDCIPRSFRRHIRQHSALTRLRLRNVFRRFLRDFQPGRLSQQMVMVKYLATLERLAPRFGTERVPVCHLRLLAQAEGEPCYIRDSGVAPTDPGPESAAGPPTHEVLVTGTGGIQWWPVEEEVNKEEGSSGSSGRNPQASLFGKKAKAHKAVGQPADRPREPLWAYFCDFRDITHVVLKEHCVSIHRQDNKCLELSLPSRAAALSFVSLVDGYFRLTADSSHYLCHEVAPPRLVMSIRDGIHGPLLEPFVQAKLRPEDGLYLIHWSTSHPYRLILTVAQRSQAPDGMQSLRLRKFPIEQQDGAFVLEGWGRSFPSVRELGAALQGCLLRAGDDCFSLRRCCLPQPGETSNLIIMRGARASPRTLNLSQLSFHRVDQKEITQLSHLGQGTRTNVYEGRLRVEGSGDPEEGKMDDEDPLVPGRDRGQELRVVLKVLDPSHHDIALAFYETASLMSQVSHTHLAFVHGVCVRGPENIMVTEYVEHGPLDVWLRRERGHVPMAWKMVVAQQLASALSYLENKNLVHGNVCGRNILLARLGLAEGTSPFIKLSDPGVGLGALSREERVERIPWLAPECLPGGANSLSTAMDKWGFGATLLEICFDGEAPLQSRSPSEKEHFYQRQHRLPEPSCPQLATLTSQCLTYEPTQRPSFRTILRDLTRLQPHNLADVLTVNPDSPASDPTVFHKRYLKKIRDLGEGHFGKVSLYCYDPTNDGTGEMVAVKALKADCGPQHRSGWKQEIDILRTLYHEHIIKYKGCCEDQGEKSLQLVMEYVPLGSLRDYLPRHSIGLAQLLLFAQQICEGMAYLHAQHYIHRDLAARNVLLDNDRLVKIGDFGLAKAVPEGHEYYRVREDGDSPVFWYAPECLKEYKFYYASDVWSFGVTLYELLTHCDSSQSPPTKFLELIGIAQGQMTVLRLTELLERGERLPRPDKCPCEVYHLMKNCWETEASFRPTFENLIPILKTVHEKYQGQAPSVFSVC
EGFR kinase, sequence (P00533 25-1210): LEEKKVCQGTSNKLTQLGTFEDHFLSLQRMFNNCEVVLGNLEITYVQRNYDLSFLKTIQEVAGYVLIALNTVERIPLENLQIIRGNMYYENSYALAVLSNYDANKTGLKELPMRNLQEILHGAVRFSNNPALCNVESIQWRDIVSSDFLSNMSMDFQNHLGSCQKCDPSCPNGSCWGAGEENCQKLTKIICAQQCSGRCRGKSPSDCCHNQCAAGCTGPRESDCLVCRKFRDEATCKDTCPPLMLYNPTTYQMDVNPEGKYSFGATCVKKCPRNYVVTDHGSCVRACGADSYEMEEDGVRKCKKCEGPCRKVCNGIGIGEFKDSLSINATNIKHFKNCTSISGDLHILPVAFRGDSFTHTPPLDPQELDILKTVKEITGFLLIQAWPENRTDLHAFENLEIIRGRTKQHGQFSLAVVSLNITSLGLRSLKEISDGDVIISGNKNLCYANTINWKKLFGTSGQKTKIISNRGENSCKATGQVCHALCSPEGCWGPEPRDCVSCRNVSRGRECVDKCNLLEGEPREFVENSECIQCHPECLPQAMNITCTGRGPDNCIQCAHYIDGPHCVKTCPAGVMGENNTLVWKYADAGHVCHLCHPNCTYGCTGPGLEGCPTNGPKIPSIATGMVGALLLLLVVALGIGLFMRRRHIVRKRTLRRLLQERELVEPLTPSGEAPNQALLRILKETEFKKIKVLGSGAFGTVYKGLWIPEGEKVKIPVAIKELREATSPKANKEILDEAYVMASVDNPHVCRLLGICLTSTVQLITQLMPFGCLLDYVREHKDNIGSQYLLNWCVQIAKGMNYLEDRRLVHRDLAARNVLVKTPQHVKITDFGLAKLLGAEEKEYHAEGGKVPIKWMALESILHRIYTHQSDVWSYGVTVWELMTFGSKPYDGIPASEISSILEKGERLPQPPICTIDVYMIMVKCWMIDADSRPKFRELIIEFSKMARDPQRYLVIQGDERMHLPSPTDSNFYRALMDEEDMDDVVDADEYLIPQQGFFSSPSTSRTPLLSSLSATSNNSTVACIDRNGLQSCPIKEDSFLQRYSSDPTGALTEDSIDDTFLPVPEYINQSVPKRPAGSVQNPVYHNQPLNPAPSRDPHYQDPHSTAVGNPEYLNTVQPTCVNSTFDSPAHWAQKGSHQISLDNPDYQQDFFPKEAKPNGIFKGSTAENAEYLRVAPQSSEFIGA

Compound: COc1cc2ncnc(Nc3ccc(O)c(Br)c3)c2cc1OC [WHI-P154]
- activity against JAK1 (JAK1): no activity
- activity against JAK2 (JAK2): no activity

Compound: Oclacitinib maleate
- inhibition of a panel of 38 non-JAK kinases [1]: does not inhibit

Compound: COc1cc2ncnc(Nc3cc(Br)c(O)c(Br)c3)c2cc1OC [WHI-P97]
- IC50 (EGFR kinase): 2500 nM

Compound: CC1(C)CN(C(=O)c2ccc(-c3cccc4nc(NC(=O)C5CC5)nn34)cc2)C1 [Solcitinib]
- IC50 (JAK1): 8 to 9 nM
- selectivity for JAK1 over JAK3 (JAK3): 55 fold
- selectivity for JAK1 over TYK2 (TYK2): 23 fold
- selectivity for JAK1 over JAK2 (JAK2): 11 fold

Compound: COc1cc2ncnc(Nc3ccc(O)cc3)c2cc1OC [JANEX-1]
- activity against JAK1 (JAK1): without altering the activity
- IC50 (JAK3): 78000 nM
- activity against JAK2 (JAK2): without altering the activity

Compound: CC(C)N(CCC(=O)c1ccc2ccccc2c1)Cc1ccccc1 [ZM 39923 HCl]
- activity against JAK2 (JAK2): almost no activity

Compound: NC(=O)c1nc(-c2c(F)cccc2Cl)oc1Nc1ccc(C(=O)N2CCOCC2)cc1 [SAR-20347]
- IC50 (JAK1): 23 nM
- IC50 (JAK3; cell-free assay for AT9283): 41 nM
- IC50 (TYK2): 0.6 nM

Compound: N#Cc1ccc(COc2ccc(-c3cccc4nc(NC(=O)C5CC5)nn34)cc2)cn1 [GLPG0634 analogue]
- IC50 (JAK1): 10 nM
- IC50 (JAK3): 810 nM
- IC50 (TYK2): 116 nM
- IC50 (JAK2; cell-free assay for AZD1480 and AT9283): 28 nM

Compound: N#CCNC(=O)c1ccc(-c2ccnc(Nc3ccc(N4CCOCC4)cc3)n2)cc1 [Momelotinib]
- inner ear toxicity: ABR thresholds before and after treatment ([2]; 8 kHz, 16 kHz and 32 kHz, 14-day Momelotinib protocol): No differences
- general toxicity in vivo ([2]; oral, up to 100 mg/kg/day over a 14-day regimen, 4-week-old C57BL/6 mice): not toxic
- toxicity to HCs of compound alone ([3]; 0.2 μM Momelotinib alone, cochlear explants): did not show toxicity
- hair cell loss at the middle turn region (phalloidin images) ([3]; cotreated with MMB 0.2 μM and gentamicin (GM), 24 h, P3 FVB cochlear explants): minimal levels of hair cell loss
- protection against aminoglycoside-induced hair cell loss (OHC number per 100 μm length of cochlear middle turn) ([3]; cotreatment with Momelotinib and gentamicin or kanamycin, n=5 per group): full protection
- protection of mechanosensory hair cells against gentamicin (GM) ([4]; then GM 100 uM for 1 hour): protected
- protection of mechanosensory hair cells against kanamycin (KM) ([4]; then KM 200 or 300 uM for 1 hour or 150 uM for 6 hours): protected
